ChEMBL document CHEMBL1201862, “PubChem BioAssay data set” (2004)
The source made the active and inactive calls.

Tests used:
[1] = test system: P388; test: cells; format: functional; settings: Mus musculus
[2] = test system: P388/ADR; test: cells; format: functional; settings: Mus musculus
[3] = test system: SN12K1; test: cells; format: functional; settings: Homo sapiens
[4] = test system: H9c2; test: cells; format: functional, cell-based; settings: Rattus norvegicus, H9c2, Myocardium;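 further: confirmatory concentration-response retest of ultra-high-throughput screening hits for modulation of myocardial damage; cell death induced by hydrogen peroxide oxidative stress; compound pretreatment for 60 min then peroxide exposure for 2 h; potency is for protecting the cells against peroxide damage rather than for killing them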
[5] = inhibitors of SNCA 5'UTR-driven reporter translation, confirmation, H4 neuroglioma cells, luminescence (AID 1988); format: functional, cell-based
[6] = Luminescence Cell-Based Dose Response HTS to Identify Inhibitors of 5'UTR Stem-Loop Driven Prion Protein mRNA Translation in H4 Neuroglioblastoma Cells. [Related pubchem assays: 1827 (Project Summary), 1813 (Primary HTS)]; format: functional
[7] = inhibitors of firefly luciferase expression or activity, dose response, H4 neuroglioma cells, luminescence (AID 1990); format: functional, cell-based
[8] = C. albicans growth with fluconazole, confirmation, fluorescence, retest (AID 2467); format: functional, cell-based
[9] = NIH-3T3 fibroblast cytotoxicity, dose response, cytotoxicity control, cell-based, fluorescence, Alamar Blue, secondary assay (AID 2327); format: functional;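 further: NIH-3T3 mouse fibroblasts cultured with fluconazole at 8 µg/mL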
[10] = cells; format: functional, cell-based
[11] = test system: Streptococcus; test: Group A Streptococcus viability loss, dose response, counter-screen for streptokinase expression inhibitor project, luminescence, BacTiterGlo (AID 1915); format: functional, organism-based;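 further: potency for reduction of bacterial viability or growth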
[12] = target: T1, Streptokinase A (Streptococcus pyogenes serotype M1, UniProt P10520); test: S. pyogenes streptokinase expression inhibitors, potency, dose response, plasminogen activation absorbance, OD405 (AID 1914); format: functional, Streptococcus pyogenes M1 GAS;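 further: secreted streptokinase activity via plasminogen activation per viability signal from cell pellet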
T1 sequence (P10520 whole entry): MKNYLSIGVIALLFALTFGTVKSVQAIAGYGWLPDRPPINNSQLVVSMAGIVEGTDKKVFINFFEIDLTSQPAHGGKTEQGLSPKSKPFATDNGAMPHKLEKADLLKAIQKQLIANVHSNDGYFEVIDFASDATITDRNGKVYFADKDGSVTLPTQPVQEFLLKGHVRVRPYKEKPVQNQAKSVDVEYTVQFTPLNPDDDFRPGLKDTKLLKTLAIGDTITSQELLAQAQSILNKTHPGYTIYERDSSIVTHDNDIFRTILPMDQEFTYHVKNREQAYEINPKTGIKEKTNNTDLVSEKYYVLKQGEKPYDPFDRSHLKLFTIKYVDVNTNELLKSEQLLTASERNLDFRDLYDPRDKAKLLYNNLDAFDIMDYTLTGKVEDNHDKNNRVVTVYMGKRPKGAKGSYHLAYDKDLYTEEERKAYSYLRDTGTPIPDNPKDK

[13] = test system: Streptococcus sp. 'group A'; test: growth inhibition of control SK(-) GAS strain, dose response, counter-screen for streptokinase expression inhibitor project, luminescence, kanamycin, BacTiterGlo, confirmation (AID 1900); format: functional, organism-based
[14] = test system: INS1; test: beta cell apoptosis inhibitors, cytokine rescue, dose response, luminescence, retest (AID 449756); format: functional, cell-based; settings: Rattus norvegicus;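 further: cell death triggered by IL-1 beta plus TNF-alpha plus IFN-gamma mixture; protective hits raise ATP signal compared with cytokine alone wells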
[15] = cells; format: functional, cell-based; remark: listed apart in the source
[16] = target: Paired box protein Pax-8 (Homo sapiens, UniProt Q06710); test: inhibitors of PAX8-driven TPO luciferase reporter, dose response, RMG-I cells, cherry-pick (AID 687027); format: functional, cell-based;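 further: luciferase reporter driven by Pax8 target thyroperoxidase promoter measured by SteadyGlo luminescence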
[17] = cells; format: functional
[18] = test system: Vero; test: cells; format: functional; settings: Chlorocebus sabaeus
[19] = target: T2, Ubiquitin-conjugating enzyme E2 N (Homo sapiens, UniProt P61088); format: functional;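 further: Dose-response confirmation in a TR-FRET assay detecting UBC13-driven polyubiquitin chain formation, inhibition measured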
T2 sequence (P61088 whole entry): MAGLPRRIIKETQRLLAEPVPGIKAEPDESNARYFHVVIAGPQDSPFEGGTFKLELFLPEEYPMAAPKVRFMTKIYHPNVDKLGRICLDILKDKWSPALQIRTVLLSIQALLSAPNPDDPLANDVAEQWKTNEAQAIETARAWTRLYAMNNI

Paired box protein Pax-8, sequence (Q06710 whole entry): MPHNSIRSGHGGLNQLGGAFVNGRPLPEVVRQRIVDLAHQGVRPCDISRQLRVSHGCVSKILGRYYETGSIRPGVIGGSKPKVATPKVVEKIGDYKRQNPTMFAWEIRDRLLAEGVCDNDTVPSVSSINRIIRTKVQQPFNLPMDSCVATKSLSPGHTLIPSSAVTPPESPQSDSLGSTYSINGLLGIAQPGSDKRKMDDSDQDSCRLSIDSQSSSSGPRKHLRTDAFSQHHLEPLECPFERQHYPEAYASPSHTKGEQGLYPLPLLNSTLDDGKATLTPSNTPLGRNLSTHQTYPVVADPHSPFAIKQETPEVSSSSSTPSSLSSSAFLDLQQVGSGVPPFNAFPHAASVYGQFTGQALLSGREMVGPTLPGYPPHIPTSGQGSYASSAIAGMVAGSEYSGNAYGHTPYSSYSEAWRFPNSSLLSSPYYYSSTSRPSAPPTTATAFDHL

## CC[C@]12C=CCN3CC[C@@]4(c5ccc(OC)cc5N(C)[C@H]4[C@@](O)(C(=O)OC)[C@@H]1OC(C)=O)[C@@H]32
[1]
  GI50: 14.5 µM (inactive)
[2]
  GI50: 95.3 µM (inactive)
[3]
  GI50: 193 µM (inactive)

## O=c1cc(CSc2ccc([N+](=O)[O-])cc2)nc2sccn12
[4]
  IC50: > 79 µM (inactive)

## CCCCn1c(=O)[nH]c(=O)c2c1nc(-c1ccc(OC(F)F)c(OC)c1)n2C
[5]
  EC50: > 120 µM (not active)
[6]
  EC50: > 120 µM (not active)
[7]
  EC50: 24.6 µM (active)

## Cn1c(=O)[nH]c(=O)c2c1nc(Br)n2CC(O)COc1ccc(Cl)cc1 (stereo not given)
[4]
  IC50: > 79 µM (inactive)

## C/C(=N\NC(=[Se])N(C)C)c1ccccn1
[1]
  GI50: < 0.01 µM (active)
[2]
  GI50: < 0.01 µM (active)
[3]
  GI50: < 0.01 µM (active)

## COc1ccc(NCc2nnc(O)c3ccccc23)cc1
[4]
  IC50: > 79 µM (inactive)

## O=C1c2ccccc2NC(c2cnc3ccccc3n2)N1O (stereo not given)
[8]
  EC50: > 38 µM (not active)
[9]
  EC50: > 160 µM (inactive)

## Cc1cc(C)nc(N/N=C/c2cc(Br)ccc2O)n1
[10]
  EC50: 7.66 µM (active)
[11]
  EC50: 146 µM (active)
[12]
  EC50: > 150 µM (not active)
[13]
  EC50: 8.51 µM (active)
[14]
  AC50: 3.35 µM (active)
[15]
  EC50: > 350 µM (not active)

## Oc1nnc(Cc2ccccn2)c2ccccc12
[4]
  IC50: 39.4 µM (inactive)

## CO[C@H]1[C@@H](O)[C@@H](O)O[C@@H](O[C@H]2CC[C@@]3(C)[C@H](CC[C@@H]4[C@@H]3[C@H](O)C[C@]3(C)[C@@H](C5=CC(=O)OC5)CC[C@]43O)C2)[C@@H]1O
[16]
  AC50: 0.809 µM (active)

## CCNC(=O)C(C)C1CCC2(C)C=CC(=O)C(C)=C2C1O (stereo not given)
[1]
  GI50: > 100 µM (inactive)
[2]
  GI50: > 100 µM (inactive)
[3]
  GI50: > 100 µM (inactive)

## CCOC(=O)COc1ccc2c(=O)c(-c3ccccc3OC)coc2c1
[17]
  IC50: 1.45 µM (active)

## COc1ccc(C(=O)Nc2ccc[n+](-c3nc4ccccc4nc3[N-]S(=O)(=O)c3ccccc3)c2)cc1
[5]
  EC50: > 120 µM (not active)
[6]
  EC50: > 120 µM (not active)
[7]
  EC50: > 120 µM (not active)

## CCCCn1c(N2CCCC2)nc2c1c(=O)[nH]c(=O)n2C
[5]
  EC50: > 120 µM (not active)
[6]
  EC50: > 120 µM (not active)
[7]
  EC50: > 120 µM (not active)

## O=C(CN1C(=O)COc2ccccc21)NCCCN1CCc2ccccc2C1
[8]
  EC50: > 38 µM (not active)
[9]
  EC50: > 150 µM (inactive)

## CN(C(=O)CCN1C(=O)/C(=C/c2ccc(F)cc2)SC1=S)C1CCS(=O)(=O)C1 (stereo not given)
[18]
  CC50: > 25 µM (active)

## C/C(=N\NC(=O)CSCc1ccc([N+](=O)[O-])cc1)c1cccc(Br)c1
[19]
  IC50: > 20 µM (inactive)

## O=C(O)c1ccc(NS(=O)(=O)/C=C/c2ccccc2)cc1O
[17]
  IC50: 16.6 µM (active)

## CCNc1nc(SCc2ccccc2)nc(N2CCOCC2)n1
[5]
  EC50: 16.8 µM (active)
[6]
  EC50: > 120 µM (not active)
[7]
  EC50: 13.1 µM (active)

## CCOC(=O)N1CCC(NC(=O)c2cc3c(-c4ccccc4F)nn(C)c3s2)CC1
[4]
  IC50: 10.6 µM (active)

## CCN(Cc1ccccc1)S(=O)(=O)c1ccc(C(=O)N(CCCN(C)C)c2nc3cc4c(cc3s2)OCO4)cc1
[19]
  IC50: > 20 µM (inactive)

## COc1cc(C(=O)N/N=C/C2CC=CCC2)cc(OC)c1OC (stereo not given)
[5]
  EC50: > 120 µM (not active)
[6]
  EC50: > 120 µM (not active)
[7]
  EC50: > 120 µM (not active)

## CCN1C(=O)/C(=C/c2nc(O)c3ccccc3n2)c2ccccc21
[4]
  IC50: > 79 µM (inactive)

## O=C(c1cc2ccccc2o1)N1CCN(Cc2ccccc2)CC1
[17]
  IC50: 18.8 µM (active)

## O=C1OC2CC=CC1C2 (stereo not given)
[1]
  GI50: > 100 µM (inactive)
[2]
  GI50: > 100 µM (inactive)
[3]
  GI50: > 100 µM (inactive)

## O=S(=O)(Nc1cccc(-c2cn3cccnc3n2)c1)c1ccc(Cl)cc1
[16]
  AC50: 43.5 µM (active)

## CC1=CC(O)C(O)C2(C)C1CC1OC(=O)C(O)C3C(C)C(O)C4(O)OCC13C42 (stereo not given)
[1]
  GI50: > 29 µM (inactive)
[2]
  GI50: > 625 µM (inactive)
[3]
  GI50: 3.63 µM (inactive)

## Nc1ncnc2c1nnn2C1OC(CO)C(O)C1O (stereo not given)
[1]
  GI50: 3.42 µM (inactive)
[2]
  GI50: 8.43 µM (inactive)
[3]
  GI50: 1.71 µM (inactive)

## CCOC(=O)CN1CCS/C1=N/C#N
[1]
  GI50: > 100 µM (inactive)
[2]
  GI50: > 100 µM (inactive)
[3]
  GI50: > 100 µM (inactive)

## CC(=O)NC(c1cccs1)c1cc(Cl)c2ccccc2c1O (stereo not given)
[19]
  IC50: > 20 µM (inactive)

## [N-]=[N+]=CC(=O)CCC(N)C(=O)O (stereo not given)
[1]
  GI50: 0.0991 µM (active)
[2]
  GI50: 0.112 µM (active)
[3]
  GI50: 0.871 µM (active)

## CCOc1ncccc1C(=O)Nc1cccc(-c2nc3cccnc3s2)c1
[4]
  IC50: > 79 µM (inactive)

## COc1cc2[nH]c(Cl)c([N+](=O)[O-])c2cc1OC
[17]
  IC50: 23.1 µM (active)

## O=C(Nc1ccccn1)c1cc(-c2cccnc2)nc2ccc(Br)cc12
[5]
  EC50: 8.63 µM (active)
[6]
  EC50: 13.5 µM (active)
[7]
  EC50: 10.9 µM (active)

## O=C(N/N=C/c1cccs1)c1cncc(Br)c1
[17]
  IC50: 10.7 µM (active)

## CC(=O)c1c(C)oc2ccc(N(C(C)=O)S(=O)(=O)c3ccc(Cl)c([N+](=O)[O-])c3)cc12
[5]
  EC50: 7.59 µM (active)
[6]
  EC50: 8.95 µM (active)
[7]
  EC50: 7.87 µM (active)

## CN(CCc1cn[nH]c1)Cc1nc(C(c2ccccc2)c2ccccc2)no1
[16]
  AC50: 65 µM (active)

## O=C(NCCCCCCNC(=O)n1cc(F)c(=O)[nH]c1=O)NCCCOCCOCCOCCOCCOCCOCCOCCOCCOCCOCCOCCOCCOCCOCCOCCOCCOCCOCCOCCOCCOCCCNC(=O)C(O)C(O)C(O)C(O)CO (stereo not given)
[1]
  GI50: 0.879 µM (active)
[2]
  GI50: 0.492 µM (active)
[3]
  GI50: 6.15 µM (inactive)

## COc1ccc(/C=N/NC(=O)c2cccnc2)cc1CN1CCc2ccccc2C1
[4]
  IC50: 10.6 µM (active)

## COc1cccc2c1[C@H]1CO[C@H]3C4C[C@H](C(=O)O)C([C@@H](C2)N13)N4C (stereo not given in full)
[1]
  GI50: 1.08 µM (active)
[2]
  GI50: 0.0906 µM (active)
[3]
  GI50: 0.483 µM (active)

## Cc1cccnc1NC(=O)c1c(O)c2ccccc2n(C)c1=O
[17]
  IC50: 25 µM (active)

## CC(C)[C@](O)(C(=O)OCC1CC[N+]2([O-])CC[C@@H](O)C12)[C@H](C)O (stereo not given in full)
[1]
  GI50: > 364 µM (inactive)
[2]
  GI50: > 375 µM (inactive)
[3]
  GI50: > 375 µM (inactive)

## O=NN(CCCl)C(=O)Nc1ccc(Cl)c(Cl)c1
[1]
  GI50: 49.1 µM (inactive)
[2]
  GI50: 65 µM (inactive)
[3]
  GI50: 84.9 µM (inactive)

## COc1ccc(C(=O)Nc2ccccc2N2CCOCC2)cc1[N+](=O)[O-]
[5]
  EC50: > 120 µM (not active)
[6]
  EC50: > 120 µM (not active)
[7]
  EC50: > 120 µM (not active)

## CSc1nc2ccc(S(=O)(=O)Nc3c(C)n(C)n(-c4ccccc4)c3=O)cc2s1
[4]
  IC50: > 79 µM (inactive)

## O=c1cc(-c2cccnc2)oc2c1ccc1ccccc12
[4]
  IC50: > 79 µM (inactive)

## CCc1ccccc1N=C(S)N1CCCCCC1
[8]
  EC50: > 38 µM (not active)
[9]
  EC50: 42.1 µM (active)
